Experimental findings from paper PMC9133015 (Nature Communications, 2022) are described below.

Each structure is given as a SMILES string. “And” between values parts separate entries of the source, which are not always exact repeats. Identical values can stand only once. Like-named read-outs stand apart in the source and are kept apart here.

For the test, the target named is T1, DYRK2 (Homo sapiens, UniProt Q92630).
T1 construct: purchased Reaction Biology Corporation (assay service)
T1 sequence (Q92630 1-601): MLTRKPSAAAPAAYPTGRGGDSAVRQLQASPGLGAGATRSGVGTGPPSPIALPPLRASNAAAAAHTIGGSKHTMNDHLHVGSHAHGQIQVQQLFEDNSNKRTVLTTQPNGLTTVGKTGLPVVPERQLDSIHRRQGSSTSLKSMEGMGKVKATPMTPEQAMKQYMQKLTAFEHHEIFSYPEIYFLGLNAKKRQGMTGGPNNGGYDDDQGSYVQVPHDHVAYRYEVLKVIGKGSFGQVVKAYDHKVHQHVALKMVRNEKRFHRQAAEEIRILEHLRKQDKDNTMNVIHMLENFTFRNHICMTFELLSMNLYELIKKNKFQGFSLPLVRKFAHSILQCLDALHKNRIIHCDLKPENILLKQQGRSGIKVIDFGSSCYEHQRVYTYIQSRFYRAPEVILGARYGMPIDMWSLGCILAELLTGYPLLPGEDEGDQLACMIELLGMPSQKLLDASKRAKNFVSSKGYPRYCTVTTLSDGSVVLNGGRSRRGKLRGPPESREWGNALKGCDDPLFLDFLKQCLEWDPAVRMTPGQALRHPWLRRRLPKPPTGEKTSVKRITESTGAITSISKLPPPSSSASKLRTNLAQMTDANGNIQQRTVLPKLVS
Kind of test: DYRKs kinase activity assay (33P-ATP, DYRKtide substrate): DYRK2. The class given is biochemical. The following applies: for % Inhibition / inhibition at 0.0137174 µM / inhibition at 0.0411523 µM / inhibition at 0.123457 µM / inhibition at 0.37037 µM / inhibition at 1.11111 µM / inhibition at 3.33333 µM / inhibition at 10 µM / inhibition at 0.000508053 µM / inhibition at 0.00152416 µM / inhibition at 0.00457247 µM: DYRK2 kinase, duplicate values; for inhibition at 0.0137174 µM / inhibition at 0.0411523 µM / inhibition at 0.123457 µM / inhibition at 0.37037 µM / inhibition at 1.11111 µM / inhibition at 3.33333 µM / inhibition at 10 µM / inhibition at 0.00152416 µM: read-out: % Inhibition; for DYRK2 inhibitory activity (in words): structural optimization of lead 12.

Where [1] appears, read: Supplementary Table 1, read-out: IC50 (μM), DYRK2 kinase.

Regarding `O=C(COc1ccccc1-c1ccnn1-c1ccccc1)NN=Cc1coc2ccc(Cl)cc2c1=O` [Compound 11], the “% Inhibition” value is -0.64% and -0.50% (Conc. 0.000508053 µM); -10.49% and -4.61% (Conc. 0.00152416 µM); -7.80% and -6.47% (Conc. 0.00457247 µM); 2.76% and 2.77% (Conc. 0.0137174 µM); 5.64% and 5.65% (Conc. 0.0411523 µM); 2.54% (Conc. 0.123457 µM). The “% Inhibition” value (Conc. 0.37037 µM) was 6.34% and 2.72%; the “% Inhibition” value (Conc. 1.11111 µM) is 14.05% and 16.10%; the “% Inhibition” value (Conc. 3.33333 µM) is 22.86% and 21.57%; the “% Inhibition” value (Conc. 10 µM) was 38.49% and 39.53%. The half-inhibitory concentration (IC50) under setting [1] is greater than 10 µM.

With `Cn1c(CN2CCN(C(=O)C3CCCCC3)CC2)nc2cc(NC(=O)Nc3ccccc3)ccc21` [Compound 13], the “% Inhibition” value is, setting by setting: (Conc. 0.000508053 µM) 1.82% and 2.74%; (Conc. 0.00152416 µM) 3.66% and 2.25%; (Conc. 0.00457247 µM) 7.30% and 8.12%; (Conc. 0.0137174 µM) 10.53% and 13.70%; (Conc. 0.0411523 µM) 5.97% and 6.86%; (Conc. 0.123457 µM) 12.38% and 8.48%. The “% Inhibition” value reads like this: (Conc. 0.37037 µM) 14.58% and 13.01%; (Conc. 1.11111 µM) 21.59% and 24.67%; (Conc. 3.33333 µM) 29.05% and 32.01%; (Conc. 10 µM) 31.39% and 34.31%. Moreover, the IC50 under setting [1] is greater than 10 µM.

With `CC(C)Cc1nc(N2CCN(CC(=O)NCc3ccco3)CC2)c(C#N)c2c1COC(C)(C)C2` [Compound 14], the “% Inhibition” value by setting is: (Conc. 0.000508053 µM) 0.98% and 2.97%; (Conc. 0.00152416 µM) 13.91% and 15.64%; (Conc. 0.00457247 µM) 3.50% and 5.44%; (Conc. 0.0137174 µM) 7.06% and 8.93%; (Conc. 0.0411523 µM) 12.96% and 14.71%; (Conc. 0.123457 µM) 25.38% and 26.88%. Besides, the “% Inhibition” value is 22.08% and 23.65% (Conc. 0.37037 µM); 26.44% and 27.92% (Conc. 1.11111 µM); 22.42% and 24.14% (Conc. 3.33333 µM); 27.65% and 29.11% (Conc. 10 µM). In addition, the 50% inhibitory concentration (IC50) under setting [1] is greater than 10 µM.

For the compound `COc1cc(-c2nnc(CSc3nc4c(OC)ccc(OC)c4[nH]3)o2)cc(OC)c1OC` [Compound 15], the “% Inhibition” value reads like this: (Conc. 0.000508053 µM) -1.53% and -4.09%; (Conc. 0.00152416 µM) -4.76% and -6.22%; (Conc. 0.00457247 µM) -1.13% and -0.37%; (Conc. 0.0137174 µM) -10.53% and -12.16%; (Conc. 0.0411523 µM) -9.17% and -11.37%; (Conc. 0.123457 µM) -2.00% and -9.98%. In addition, the “% Inhibition” value is -8.29% and -9.76% (Conc. 0.37037 µM); -3.66% and -9.01% (Conc. 1.11111 µM); 0.93% and -1.24% (Conc. 3.33333 µM); 16.42% and 14.23% (Conc. 10 µM). Further, the half-maximal inhibitory concentration (IC50) under setting [1] is greater than 10 µM.

For the compound `CCN1CCN(Cc2ccc(Nc3ncc(F)c(-c4ccc5ncsc5c4)n3)nc2)CC1` [Compound 16], the “% Inhibition” value (Conc. 0.000508053 µM) is 0.29% and 3.35%; the “% Inhibition” value (Conc. 0.00152416 µM) was -2.64% and 1.62%; the “% Inhibition” value (Conc. 0.00457247 µM) was 1.68% and 3.59%; the “% Inhibition” value (Conc. 0.0137174 µM) worked out at 8.22%; the “% Inhibition” value (Conc. 0.0411523 µM) is reported as 26.26%; the “% Inhibition” value (Conc. 0.123457 µM) was found to be 48.52%. Moreover, the “% Inhibition” value runs as follows: (Conc. 0.37037 µM) 63.31%; (Conc. 1.11111 µM) 68.60%; (Conc. 3.33333 µM) 73.48%; (Conc. 10 µM) 77.29%. The inhibition at 0.0137174 µM (Conc. 0.0137174 µM) was 6.53%. Under “Conc. 0.0411523 µM”, the inhibition at 0.0411523 µM turned out to be 23.1%. Besides, the inhibition at 0.123457 µM (Conc. 0.123457 µM) is 47.2%. For the same compound, the inhibition at 0.37037 µM (Conc. 0.37037 µM) was 64.2%. Besides, for the setting “Conc. 1.11111 µM”, the inhibition at 1.11111 µM amounted to 68.6%. For the same compound, under “Conc. 3.33333 µM”, the inhibition at 3.33333 µM is 73.6%. Besides, the inhibition at 10 µM (Conc. 10 µM) stood at 76.9%.

For `CC(C)(C)OC(=O)N1CCN(Cc2ccc(Nc3ncc(F)c(-c4ccc5ncsc5c4)n3)nc2)CC1` [Compound 17], the “DYRK2 inhibitory activity (in words)” value is “significantly decreased activity”. Also, the “% Inhibition” value (Conc. 0.000508053 µM) was -1.98% and -2.03%. In addition, the “% Inhibition” value (Conc. 0.00152416 µM) is -0.44% and -0.45%. The “% Inhibition” value (Conc. 0.00457247 µM) is -0.11% and -0.23%. Further, under “Conc. 0.0137174 µM”, the “% Inhibition” value worked out at 0.54% and the inhibition at 0.0137174 µM is 0.53%. Where the note is “Conc. 0.0411523 µM”, the “% Inhibition” value came out at 9.25% and the inhibition at 0.0411523 µM is 8.33%. In addition, where the note is “Conc. 0.123457 µM”, the “% Inhibition” value came out at 18.48% and the inhibition at 0.123457 µM turned out to be 18.1%. In addition, for the setting “Conc. 0.37037 µM”, the “% Inhibition” value is given as 37.11% and the inhibition at 0.37037 µM was found to be 36.6%. In addition, under “Conc. 1.11111 µM”, the “% Inhibition” value was determined as 48.09% and the inhibition at 1.11111 µM came to 47%. Further, where the note is “Conc. 3.33333 µM”, the “% Inhibition” value is 58.92% and the inhibition at 3.33333 µM was found to be 57.6%. Under “Conc. 10 µM”, the “% Inhibition” value is recorded as 60.62% and the inhibition at 10 µM came out at 59.4%.

For `Cl.Fc1cnc(Nc2ccc(CN3CCNCC3)cn2)nc1-c1ccc2ncsc2c1` [Compound 18], the inhibition at 0.000508053 µM (Conc. 0.000508053 µM) was -3.69%. In addition, the inhibition at 0.00152416 µM (Conc. 0.00152416 µM) is -1.56%. For the same compound, where the note is “Conc. 0.00457247 µM”, the inhibition at 0.00457247 µM is -2.27%. In addition, where the note is “Conc. 0.0137174 µM”, the “% Inhibition” value came to 12.10% and the inhibition at 0.0137174 µM stood at 9.69%. Besides, under “Conc. 0.0411523 µM”, the “% Inhibition” value turned out to be 21.24% and the inhibition at 0.0411523 µM stood at 19%. In addition, for the setting “Conc. 0.123457 µM”, the “% Inhibition” value worked out at 36.98% and the inhibition at 0.123457 µM turned out to be 36.4%. Under “Conc. 0.37037 µM”, the “% Inhibition” value turned out to be 58.36% and the inhibition at 0.37037 µM stood at 56%. For the setting “Conc. 1.11111 µM”, the “% Inhibition” value is 75.32% and the inhibition at 1.11111 µM stood at 75.1%. In addition, under “Conc. 3.33333 µM”, the “% Inhibition” value was 88.49% and the inhibition at 3.33333 µM stood at 88.2%. Moreover, for the setting “Conc. 10 µM”, the “% Inhibition” value is reported as 94.11% and the inhibition at 10 µM turned out to be 93.9%.

As for `CCN1CCN(Cc2ccc(Nc3ncc(F)c(-c4cnc5ccnn5c4)n3)nc2)CC1` [Compound 19], the “DYRK2 inhibitory activity (in words)” value is “significantly decreased”. Also, for the setting “Conc. 0.000508053 µM”, the “% Inhibition” value is -1.87% and -5.39%. Moreover, the “% Inhibition” value (Conc. 0.00152416 µM) was -4.33% and -7.82%. Further, the “% Inhibition” value (Conc. 0.00457247 µM) is -8.64% and -11.90%. For the same compound, the “% Inhibition” value (Conc. 0.0137174 µM) is -12.62% and -14.01%. Further, the “% Inhibition” value (Conc. 0.0411523 µM) is -8.54% and -12.22%. Also, the “% Inhibition” value (Conc. 0.123457 µM) was 0.35% and 0.01%. Moreover, the “% Inhibition” value (Conc. 0.37037 µM) is 1.52% and -0.10%. Where the note is “Conc. 1.11111 µM”, the “% Inhibition” value was 6.04% and the inhibition at 1.11111 µM was 8.33%. For the same compound, the “% Inhibition” value (Conc. 3.33333 µM) was 1.80% and -0.24%. Besides, under “Conc. 10 µM”, the “% Inhibition” value worked out at 26.16% and the inhibition at 10 µM came to 28%.

Take `Cl.Fc1cnc(Nc2ccc(N3CCNCC3)cn2)nc1-c1ccc2ncsc2c1` [Compound 21]: where the note is “Conc. 0.000508053 µM”, the “% Inhibition” value was determined as 9.05% and the inhibition at 0.000508053 µM was 8.81%. Where the note is “Conc. 0.00152416 µM”, the “% Inhibition” value was found to be 8.33% and the inhibition at 0.00152416 µM was 12.2%. Further, where the note is “Conc. 0.00457247 µM”, the “% Inhibition” value is reported as 11.99% and the inhibition at 0.00457247 µM was found to be 13.8%. Moreover, where the note is “Conc. 0.0137174 µM”, the “% Inhibition” value was 16.84% and the inhibition at 0.0137174 µM amounted to 14%. For the same compound, where the note is “Conc. 0.0411523 µM”, the “% Inhibition” value worked out at 38.81% and the inhibition at 0.0411523 µM was 36.7%. For the setting “Conc. 0.123457 µM”, the “% Inhibition” value is listed as 56.81% and the inhibition at 0.123457 µM stood at 55.4%. In addition, where the note is “Conc. 0.37037 µM”, the “% Inhibition” value was 75.73% and the inhibition at 0.37037 µM came out at 74%. Further, under “Conc. 1.11111 µM”, the “% Inhibition” value is recorded as 88.57% and the inhibition at 1.11111 µM is 86.9%. Also, for the setting “Conc. 3.33333 µM”, the “% Inhibition” value was 94.50% and the inhibition at 3.33333 µM turned out to be 95.3%. Moreover, where the note is “Conc. 10 µM”, the “% Inhibition” value worked out at 95.74% and the inhibition at 10 µM was determined as 96.6%. Further, the 50% inhibitory concentration (IC50) (read-out: DYRK2 IC50) was determined as 0.085 µM.
